Experimental data: PMC10856265, “Penisimplicins A and B: Novel Polyketide–Peptide Hybrid Alkaloids from the Fungus Penicillium simplicissimum JXCC5” (Molecules, 2024)

What was measured:
acetylcholinesterase = conditions: cited from earlier work; for IC50: read-out: anti-acetylcholinesterase activity IC50
[1] = target: T1, Acetylcholinesterase (AChE) (Homo sapiens, UniProt P22303); experiment: biochemical; conditions: Ellman method, pH 8.0, 37 °C, absorbance at 405 nm; read-out: acetylcholinesterase inhibitory activity IC50
T1 construct: purchased Sigma-Aldrich
Experimental: Acetylcholinesterase (AChE, Sigma-Aldrich, Saint Louis, MO, USA, 0.1 U/mL), acetylthiocholine iodide, dithiobisnitrobenzoic acid (DTNB), and tacrine were bought from Sigma-Aldrich.
The AChE inhibitory activity was evaluated based on the protocol developed by Ellman et al. [33]. The enzymatic reactions were conducted in 96-well microplates. The following were added to each well: 110 μL phosphate buffer (pH 8.0), 40 μL AChE, and the tested compounds (dissolved in 10 μL DMSO). The microplates were then incubated in 37 °C for 20 min. […] Then, the absorbance at 405 nm was detected after 1 h. Seven different concentrations and three replications per concentration for each compound were tested.

[2] = system: murine monocytic RAW264.7 macrophage cells; experiment: Anti-inflammatory assay: NO production by the Griess method; assay type: cell-based; conditions: LPS (0.5 µg/mL)-stimulated RAW264.7 cells, NO content
Experimental: The content of NO was determined by the Griess method. Briefly, the murine monocytic RAW264.7 macrophage cells in logarithmic growth phase were diluted to 1 × 10^5 cells/mL. Then, 100 µL of cell dilution was seeded into the 96-well plates and incubated overnight at 37 °C in a humid atmosphere with 5% CO2 for 24 h. The test compound and lipopolysaccharides (LPS) (Sigma) (0.5 µg/mL) were then added to each well and incubated for another 18 h. Then, 50 µL of cells culture supernatant was taken, 50 µL of the Griess reagent (reagent A and reagent B, Sigma) was added in triplicate, and NO production was evaluated in each well. After 5 min of incubation, the absorbances of samples were measured at 570 nm with Envision multilabel plate reader, and the corresponding contents were calculated by curve calibration.

T1 sequence (P22303 32-614, species assumed): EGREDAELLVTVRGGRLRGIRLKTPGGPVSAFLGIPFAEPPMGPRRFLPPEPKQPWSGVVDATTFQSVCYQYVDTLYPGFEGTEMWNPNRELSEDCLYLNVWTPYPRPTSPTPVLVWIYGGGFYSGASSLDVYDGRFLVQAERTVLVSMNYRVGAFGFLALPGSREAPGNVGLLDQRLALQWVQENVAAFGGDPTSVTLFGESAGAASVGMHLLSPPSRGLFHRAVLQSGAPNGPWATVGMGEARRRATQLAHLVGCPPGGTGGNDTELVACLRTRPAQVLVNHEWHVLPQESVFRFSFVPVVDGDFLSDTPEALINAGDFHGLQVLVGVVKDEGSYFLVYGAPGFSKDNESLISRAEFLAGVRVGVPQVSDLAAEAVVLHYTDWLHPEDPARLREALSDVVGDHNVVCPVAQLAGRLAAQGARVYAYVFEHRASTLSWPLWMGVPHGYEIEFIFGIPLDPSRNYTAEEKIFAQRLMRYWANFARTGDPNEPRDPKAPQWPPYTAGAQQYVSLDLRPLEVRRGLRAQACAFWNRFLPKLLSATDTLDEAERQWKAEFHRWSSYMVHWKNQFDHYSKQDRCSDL

| Structure (SMILES) | IC50 (acetylcholinesterase) [µM] | bioactivity in a panel of biological activity assays, including anti-inflammatory activity [2] | anti-acetylcholinesterase activity IC50 (acetylcholinesterase) [µg/mL] | other results |
| --- | --- | --- | --- | --- |
| COC(C)(C)C(O)CCC(C)=CCOc1c2ccoc2cc2oc(=O)ccc12 (stereo not shown) [6′-hydroxy-7′-methoxybergamottin] | 13.2 |  |  |  |
| CCCCC[C@@H]1Cc2cc(O)c(C(=O)O)c(O)c2[C@@H](c2[nH]c3ccccc3c2CC(=O)OC)O1 [Compound 1, Penisimplicin A] |  | devoid of any bioactivities |  | IC50 [1]: 6.35 µM |
| CCCCCC(O)Cc1cc(O)c(C(=O)O)c(O)c1C1CCC2C(=O)NC(CC(C)C)C(=O)N21 (stereo not shown) [Compound 2, Penisimplicin B] |  | devoid of any bioactivities |  |  |
| C=C1CCC[C@@]2(C)C[C@@]3([C@@]45C[C@]6(C)CCCC(=C)[C@H]6CC4=C(C)C(=O)O5)OC(=O)C(C)=C3C[C@H]12 [biatractylolide] |  |  | 6.5458 |  |
| COC1=CC(=O)c2c(O)c3c(c(-c4c(OC)cc5c(c4O)C(=O)c4c(O)cc(C)cc4C5=O)c2C1=O)C[C@@H](C)O[C@H]3C [floribundiquinone B] |  |  | 5.95 |  |
| CC(C)=CCOc1c2ccoc2cc2oc(=O)ccc12 [isoimperatorin] | 23.1 |  |  |  |
